Data taken from patent US6914045B2, “Glycopeptide antibiotics” (Wyeth Holdings Corporation, priority 2001, dated 2005).
In brackets after ≈: the same amount, converted by molar mass. One block for each molecule: values may come before it.

Columns and labels:
Test in all cases: in vitro antibacterial evaluation, MIC by broth dilution
Type in all cases: cell-based
Escherichia coli = conditions: 18 hours at 35° C.
Outline: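 MIC is the lowest antibiotic concentration (tested 64-0.06 μg/mL) preventing growth of a 5×10^5 CFU/mL inoculum. Determined by broth dilution in Mueller-Hinton II medium following NCCLS standard M7-A2.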

Streptococcus sp. = test system: Streptococcus sp.
Outline: (§1)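 MIC, the lowest antibiotic concentration preventing growth, was read across 64-0.06 μg/mL with 5×10^5 CFU/mL inoculum. Method followed NCCLS M7-A2 broth dilution using Mueller-Hinton II; Gram-positive strains covered recent methicillin-, penicillin- and/or vancomycin-resistant clinical isolates.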

Staphylococcus sp. = conditions: broth dilution, 18 hours at 35° C.; for MIC Staphylococcus aureus (ATCC 29213): strain ATCC 29213; for MIC Staphylococcus aureus (GC 1131): strain GC 1131; for MIC Staphylococcus aureus (GC 3051): strain GC 3051; for MIC Staphylococcus aureus (GC 3053): strain GC 3053; for MIC Staphylococcus aureus (GC 4541): strain GC 4541; for MIC Staphylococcus aureus (GC 4542): strain GC 4542; for MIC Staphylococcus aureus-SMITH (GC 4543): strain GC 4543; for MIC Staphylococcus aureus (GC 4544): strain GC 4544; for MIC Staphylococcus aureus (GC 4545): strain GC 4545; for MIC Staphylococcus haemolyticus (GC 4546): strain GC 4546; for MIC Coagulase Negative Staphylococcus (GC 4547): strain GC 4547; for MIC Coagulase Negative Staphylococcus (GC 4548): strain GC 4548; for MIC Coagulase Negative Staphylococcus (GC 4549): strain GC 4549; for MIC Coagulase Negative Staphylococcus (GC 4551): strain GC 4551
Outline: as §1

Enterococcus sp. = test system: Enterococcus sp.
Outline: as §1

[1] = broth dilution, 18 hours at 35° C.

MIC Escherichia coli (ATCC 25922) (Escherichia coli): >128 µg/mL
MIC Escherichia coli (GC 4559) (Escherichia coli): >128 µg/mL
MIC Escherichia coli (GC 4560) (Escherichia coli): >128 µg/mL
MIC Streptococcus agalactiae (GC 4564) (Streptococcus sp.; [1]): >128 µg/mL
MIC Streptococcus pneumoniae (ATCC 6301) (Streptococcus sp.; [1]): >128 µg/mL
MIC Streptococcus pneumoniae (GC 1894) (Streptococcus sp.; [1]): 128 µg/mL (≈ 130 µM)
MIC Streptococcus pneumoniae (GC 4565) (Streptococcus sp.; [1]): >128 µg/mL
MIC Streptococcus pyogenes (GC 4563) (Streptococcus sp.; [1]): >128 µg/mL
MIC Streptococcus pneumoniae (ATCC 6301) (Streptococcus sp.; broth dilution, 18 hours at 35° C.; strain ATCC 6301): >128 µg/mL
MIC Streptococcus pneumoniae (GC 1894) (Streptococcus sp.; broth dilution, 18 hours at 35° C.; strain GC 1894): 128 µg/mL (≈ 130 µM)
MIC Streptococcus pyogenes (GC 4563) (Streptococcus sp.; broth dilution, 18 hours at 35° C.; strain GC 4563): >128 µg/mL
MIC Streptococcus agalactiae (GC 4564) (Streptococcus sp.; broth dilution, 18 hours at 35° C.; strain GC 4564): >128 µg/mL
MIC Streptococcus pneumoniae (GC 4565) (Streptococcus sp.; broth dilution, 18 hours at 35° C.; strain GC 4565): >128 µg/mL
MIC Staphylococcus aureus (ATCC 29213) (Staphylococcus sp.): >128 µg/mL
MIC Staphylococcus aureus (GC 1131) (Staphylococcus sp.): >128 µg/mL
MIC Staphylococcus aureus (GC 3051) (Staphylococcus sp.): >128 µg/mL
MIC Staphylococcus aureus (GC 3053) (Staphylococcus sp.): >128 µg/mL
MIC Staphylococcus aureus (GC 4541) (Staphylococcus sp.): >128 µg/mL
MIC Staphylococcus aureus (GC 4542) (Staphylococcus sp.): >128 µg/mL
MIC Staphylococcus aureus-SMITH (GC 4543) (Staphylococcus sp.): >128 µg/mL
MIC Staphylococcus aureus (GC 4544) (Staphylococcus sp.): >128 µg/mL
MIC Staphylococcus aureus (GC 4545) (Staphylococcus sp.): >128 µg/mL
MIC Coagulase Negative Staphylococcus (GC 4547) (Staphylococcus sp.): 128 µg/mL (≈ 130 µM)
MIC Coagulase Negative Staphylococcus (GC 4548) (Staphylococcus sp.): >128 µg/mL
MIC Coagulase Negative Staphylococcus (GC 4549) (Staphylococcus sp.): >128 µg/mL
MIC Coagulase Negative Staphylococcus (GC 4551) (Staphylococcus sp.): >128 µg/mL
MIC Enterococcus avium (GC 4558) (Enterococcus sp.; Enterococcus avium (GC 4558); broth dilution, 18 hours at 35° C.): 128 µg/mL (≈ 130 µM)
MIC Enterococcus faecalis (ATCC 29212) (Enterococcus sp.; Enterococcus faecalis (ATCC 29212); broth dilution, 18 hours at 35° C.): >128 µg/mL
MIC Enterococcus faecalis (GC 4552) (Enterococcus sp.; Enterococcus faecalis (GC 4552); broth dilution, 18 hours at 35° C.): >128 µg/mL
MIC Enterococcus faecalis (GC 4553) (Enterococcus sp.; Enterococcus faecalis (GC 4553); broth dilution, 18 hours at 35° C.): >128 µg/mL
MIC Enterococcus faecalis (GC 4554) (Enterococcus sp.; Enterococcus faecalis (GC 4554); broth dilution, 18 hours at 35° C.): >128 µg/mL
MIC Enterococcus faecalis (GC 6189) (Enterococcus sp.; Enterococcus faecalis (GC 6189); broth dilution, 18 hours at 35° C.): >128 µg/mL
MIC Enterococcus faecium (GC 2243) (Enterococcus sp.; Enterococcus faecium (GC 2243); broth dilution, 18 hours at 35° C.): >128 µg/mL
MIC Enterococcus faecium (GC 4556) (Enterococcus sp.; Enterococcus faecium (GC 4556); broth dilution, 18 hours at 35° C.): >128 µg/mL
MIC Enterococcus faecium (GC 4557) (Enterococcus sp.; Enterococcus faecium (GC 4557); broth dilution, 18 hours at 35° C.): 128 µg/mL (≈ 130 µM)
MIC Enterococcus avium (GC 4558) (Enterococcus sp.; [1]): 128 µg/mL (≈ 130 µM)
MIC Enterococcus faecalis (ATCC 29212) (Enterococcus sp.; [1]): >128 µg/mL
MIC Enterococcus faecalis (GC 2242) (Enterococcus sp.; [1]): >128 µg/mL
MIC Enterococcus faecalis (GC 2691) (Enterococcus sp.; [1]): >128 µg/mL
MIC Enterococcus faecalis (GC 3059) (Enterococcus sp.; [1]): >128 µg/mL
MIC Enterococcus faecalis (GC 4552) (Enterococcus sp.; [1]): >128 µg/mL
MIC Enterococcus faecalis (GC 4553) (Enterococcus sp.; [1]): >128 µg/mL
MIC Enterococcus faecalis (GC 4554) (Enterococcus sp.; [1]): >128 µg/mL
MIC Enterococcus faecalis (GC 6189) (Enterococcus sp.; [1]): >128 µg/mL
MIC Enterococcus faecium (GC 2243) (Enterococcus sp.; [1]): >128 µg/mL
MIC Enterococcus faecium (GC 4556) (Enterococcus sp.; [1]): >128 µg/mL
MIC Enterococcus faecium (GC 4557) (Enterococcus sp.; [1]): 128 µg/mL (≈ 130 µM)
MIC Enterococcus faecalis (GC 2242) (Enterococcus sp.; broth dilution, 18 hours at 35° C.; strain GC 2242): >128 µg/mL
MIC Enterococcus faecalis (GC 2691) (Enterococcus sp.; broth dilution, 18 hours at 35° C.; strain GC 2691): >128 µg/mL
MIC Enterococcus faecalis (GC 3059) (Enterococcus sp.; broth dilution, 18 hours at 35° C.; strain GC 3059): >128 µg/mL
SMILES: CC(C1CCCCC1)C1NC(=O)CNC(=O)C(CO)NC(=O)C(C(O)C2CNC(=N)N2C2OC(CO)C(O)C(O)C2O)NC(=O)C(C(O)C2CNC(=N)N2)NC(=O)C(C[C@H]2CC[C@H](O)CC2)NC1=O (stereo partly drawn) [Example 54a, Cyclo[3-(anti-4-hydroxycyclohexyl)alanyl-3-(2-iminoimidazolidin-4-yl)seoyl-3-(3-hexopyranosyl-2-iminoimidazolidin-4-yl)serylserylglycyl-3-cyclohexyl-2-aminobutanoyl]]
MIC Staphylococcus haemolyticus (GC 4546) (Staphylococcus sp.): 128 µg/mL (≈ 130 µM)

MIC Escherichia coli (ATCC 25922) (Escherichia coli; strain ATCC 25922, broth dilution): 32 µg/mL (≈ 29.4 µM)
MIC Escherichia coli (GC 4559) (Escherichia coli; strain GC 4559, broth dilution): 32 µg/mL (≈ 29.4 µM)
MIC Escherichia coli (GC 4560) (Escherichia coli; strain GC 4560, broth dilution): 8 µg/mL (≈ 7.34 µM)
MIC Streptococcus pneumoniae (ATCC 6301) (Streptococcus sp.; strain ATCC 6301; broth dilution, 18 hours at 35° C.): 8 µg/mL (≈ 7.34 µM)
MIC Streptococcus pneumoniae (GC 1894) (Streptococcus sp.; strain GC 1894; broth dilution, 18 hours at 35° C.): 16 µg/mL (≈ 14.7 µM)
MIC Streptococcus pyogenes (GC 4563) (Streptococcus sp.; strain GC 4563; broth dilution, 18 hours at 35° C.): 4 µg/mL (≈ 3.67 µM)
MIC Streptococcus agalactiae (GC 4564) (Streptococcus sp.; strain GC 4564; broth dilution, 18 hours at 35° C.): 8 µg/mL (≈ 7.34 µM)
MIC Streptococcus pneumoniae (GC 4565) (Streptococcus sp.; strain GC 4565; broth dilution, 18 hours at 35° C.): 16 µg/mL (≈ 14.7 µM)
MIC Staphylococcus aureus (ATCC 29213) (Staphylococcus sp.): 8 µg/mL (≈ 7.34 µM)
MIC Staphylococcus aureus (GC 1131) (Staphylococcus sp.): 8 µg/mL (≈ 7.34 µM)
MIC Staphylococcus aureus (GC 3051) (Staphylococcus sp.): 16 µg/mL (≈ 14.7 µM)
MIC Staphylococcus aureus (GC 3053) (Staphylococcus sp.): 16 µg/mL (≈ 14.7 µM)
MIC Staphylococcus aureus (GC 4541) (Staphylococcus sp.): 16 µg/mL (≈ 14.7 µM)
MIC Staphylococcus aureus (GC 4542) (Staphylococcus sp.): 8 µg/mL (≈ 7.34 µM)
MIC Staphylococcus aureus-SMITH (GC 4543) (Staphylococcus sp.): 8 µg/mL (≈ 7.34 µM)
MIC Staphylococcus aureus (GC 4544) (Staphylococcus sp.): 8 µg/mL (≈ 7.34 µM)
MIC Staphylococcus aureus (GC 4545) (Staphylococcus sp.): 8 µg/mL (≈ 7.34 µM)
MIC Coagulase Negative Staphylococcus (GC 4547) (Staphylococcus sp.): 8 µg/mL (≈ 7.34 µM)
MIC Coagulase Negative Staphylococcus (GC 4548) (Staphylococcus sp.): 4 µg/mL (≈ 3.67 µM)
MIC Coagulase Negative Staphylococcus (GC 4549) (Staphylococcus sp.): 16 µg/mL (≈ 14.7 µM)
MIC Coagulase Negative Staphylococcus (GC 4551) (Staphylococcus sp.): 8 µg/mL (≈ 7.34 µM)
MIC Coagulase Negative Staphylococcus (GC 6257) (Staphylococcus sp.; strain GC 6257): 4 µg/mL (≈ 3.67 µM)
MIC Enterococcus faecalis (ATCC 29212) (Enterococcus sp.; strain ATCC 29212; broth dilution, 18 hours at 35° C.): 64 µg/mL (≈ 58.7 µM)
MIC Enterococcus faecalis (GC 2242) (Enterococcus sp.; strain GC 2242; broth dilution, 18 hours at 35° C.): 32 µg/mL (≈ 29.4 µM)
MIC Enterococcus faecium (GC 2243) (Enterococcus sp.; strain GC 2243; broth dilution, 18 hours at 35° C.): 32 µg/mL (≈ 29.4 µM)
MIC Enterococcus faecalis (GC 2691) (Enterococcus sp.; strain GC 2691; broth dilution, 18 hours at 35° C.): 32 µg/mL (≈ 29.4 µM)
MIC Enterococcus faecalis (GC 3059) (Enterococcus sp.; strain GC 3059; broth dilution, 18 hours at 35° C.): 64 µg/mL (≈ 58.7 µM)
MIC Enterococcus faecalis (GC 4552) (Enterococcus sp.; strain GC 4552; broth dilution, 18 hours at 35° C.): 64 µg/mL (≈ 58.7 µM)
MIC Enterococcus faecalis (GC 4553) (Enterococcus sp.; strain GC 4553; broth dilution, 18 hours at 35° C.): 16 µg/mL (≈ 14.7 µM)
MIC Enterococcus faecalis (GC 4554) (Enterococcus sp.; strain GC 4554; broth dilution, 18 hours at 35° C.): 64 µg/mL (≈ 58.7 µM)
MIC Enterococcus faecium (GC 4556) (Enterococcus sp.; strain GC 4556; broth dilution, 18 hours at 35° C.): 64 µg/mL (≈ 58.7 µM)
MIC Enterococcus faecium (GC 4557) (Enterococcus sp.; strain GC 4557; broth dilution, 18 hours at 35° C.): 8 µg/mL (≈ 7.34 µM)
MIC Enterococcus avium (GC 4558) (Enterococcus sp.; strain GC 4558; broth dilution, 18 hours at 35° C.): 16 µg/mL (≈ 14.7 µM)
MIC Enterococcus faecalis (GC 6189) (Enterococcus sp.; strain GC 6189; broth dilution, 18 hours at 35° C.): 32 µg/mL (≈ 29.4 µM)
SMILES: CC(c1ccccc1)C1NC(=O)CNC(=O)C(CO)NC(=O)C(C(O)C2CNC(=N)N2C2OC(CO)C(O)C(O)C2O)NC(=O)C(C(O)C2CNC(=N)N2)NC(=O)C(Cc2ccc3oc(-c4cccc(F)c4)nc3c2)NC1=O (stereo not drawn) [Example 30, Cyclo[3-[2-(3-fluorophenyl)-1,3-benzoxazol-5-yl]alanyl-3-(2-iminoimidazolidin-4-yl)seryl-3-(3-hexopyranosyl-2-iminoimidazolidin-4-yl)serylserylglycyl-β-methylphenylalanyl]]
MIC Staphylococcus haemolyticus (GC 4546) (Staphylococcus sp.): 4 µg/mL (≈ 3.67 µM)
